Assays:
[1] = test system: patients with resectable head and neck squamous cell carcinoma (HNSCC); format: in vivo, human
Description: PI3Kδ inhibition causes irAEs. To evaluate the potential for PI3Kδ inhibitors as immunotherapeutic agents in human solid cancers, the inventors administered the PI3Kδi AMG319 to treatment-naive patients with resectable head and neck squamous cell carcinoma (HNSCC) in a neoadjuvant, double-blind, placebo-controlled randomized phase II trial. The inventors measured target inhibition (pAKT levels in B cells and drug levels to verify drug administration. Thirty-three patients were randomized in a 2:1 ratio (AMG319:Placebo) to the trial and 30 patients received at least one dose of AMG319 or placebo. Fifteen patients received 400 mg daily of AMG319 (range of 7-24 days per patient). Unexpectedly, at the 400 mg dose, 9/15 patients experienced irAEs that lead to withdrawal of treatment. After a formal safety review, 6 additional patients were recruited and treated at a reduced dose of 300 mg per day. Again, 3/6 patients had irAEs that led to discontinuation of treatment. One patient experienced grade 4 colitis after completion of 24 daily doses of AMG319 and eventually required colectomy (FIG. 4A). The most prevalent irAEs were skin rashes (29%; 25% observed in the treatment group and 4% in placebo group), diarrhea (29%; 28% in observed treatment group and 1% in placebo group) and transaminitis (14% all in the treatment group), consistent with a treatment-mediated loss of TREG cells or TREG cell functionality in multiple tissues causing immunopathology.
Double blind, randomized clinical trial and sample collection. In order to explore the immunomodulatory effects of PI3Kδ inhibition in humans, the inventors conducted a multicenter, placebo-controlled phase II neoadjuvant trial with the PI3Kδi AMG319 in resectable HNSCC, www.clinicaltrialsregister.eu/ctr-search/trial/2014-004388-20/results). All patients have provided written informed consent for participation in the clinical trial. The inventors studied Human Papilloma Virus (HPV)-negative HNSCC, as this cancer type is more prevalent, and because patients with this cancer type have poorer outcomes when compared to HPV-positive HNSCC, likely due to overall lower tumor-infiltrating lymphocyte (TIL) infiltration^31-33. The clinical trial was sponsored by Cancer Research UK Center for Drug Development (CRUKD/15/004) and approved by the Southampton and South West Hampshire Research Ethics Board; the trial EudraCT number is 2014-004388-20. Detailed information about the trial design, randomization procedure, protocol amendments, recruitment data, patient characteristics and adverse events are deposited at www.clinicaltrialsregister.eu/ctr-search/trial/2014-004388-20/results #morelnformationSection and found in the CONSORT checklist. Patients were recruited after initial diagnosis and before definitive surgical treatment; drug treatment or placebo was given for up to 24 or 28 days respectively, prior to resection of tumor. […] The inventors reasoned that high-grade irAEs were unlikely to occur during the shorter treatment duration in the neoadjuvant setting, and therefore selected 400 mg/day as the starting dose. The intended time from initiating treatment with AMG319 or placebo to surgical resection of tumor was up to 4 weeks, with weekly blood draws. The full evaluation of radiological measurements has previously been reported at https://www.clinicaltrialsregister.eu/ctr-search/trial/2014-004388-20/results to the EU Clinical Trials Register in compliance with regulatory requirements. Primary endpoints were safety and assessment of CD8^+ immune infiltrates, secondary endpoints tumor responses and AMG319 pharmacokinetic evaluation (https://www.clinicaltrialsregister.eu/ctr-search/trial/2014-004388-20/results#endPointsSection). The sample size was calculated as follows: in a pilot cohort, the CD8 count in the biopsy taken at diagnosis, and in the resected tissue sample was quantified. […]

[2] = test system: tumor-infiltrating TREG cells and CD8+ T cells in HNSCC tumor tissue; test: Phase II trial: tumor RNA-seq, sorted CD8+ T cell RNA-seq and FOXP3 immunohistochemistry, pre- vs post-treatment; format: in vivo, human
Description: Double blind, randomized clinical trial and sample collection. In order to explore the immunomodulatory effects of PI3Kδ inhibition in humans, the inventors conducted a multicenter, placebo-controlled phase II neoadjuvant trial with the PI3Kδi AMG319 in resectable HNSCC, www.clinicaltrialsregister.eu/ctr-search/trial/2014-004388-20/results). All patients have provided written informed consent for participation in the clinical trial. The inventors studied Human Papilloma Virus (HPV)-negative HNSCC, as this cancer type is more prevalent, and because patients with this cancer type have poorer outcomes when compared to HPV-positive HNSCC, likely due to overall lower tumor-infiltrating lymphocyte (TIL) infiltration^31-33. The clinical trial was sponsored by Cancer Research UK Center for Drug Development (CRUKD/15/004) and approved by the Southampton and South West Hampshire Research Ethics Board; the trial EudraCT number is 2014-004388-20. Detailed information about the trial design, randomization procedure, protocol amendments, recruitment data, patient characteristics and adverse events are deposited at www.clinicaltrialsregister.eu/ctr-search/trial/2014-004388-20/results #morelnformationSection and found in the CONSORT checklist. Patients were recruited after initial diagnosis and before definitive surgical treatment; drug treatment or placebo was given for up to 24 or 28 days respectively, prior to resection of tumor. […] The inventors reasoned that high-grade irAEs were unlikely to occur during the shorter treatment duration in the neoadjuvant setting, and therefore selected 400 mg/day as the starting dose. The intended time from initiating treatment with AMG319 or placebo to surgical resection of tumor was up to 4 weeks, with weekly blood draws. The full evaluation of radiological measurements has previously been reported at https://www.clinicaltrialsregister.eu/ctr-search/trial/2014-004388-20/results to the EU Clinical Trials Register in compliance with regulatory requirements. Primary endpoints were safety and assessment of CD8^+ immune infiltrates, secondary endpoints tumor responses and AMG319 pharmacokinetic evaluation (https://www.clinicaltrialsregister.eu/ctr-search/trial/2014-004388-20/results#endPointsSection). The sample size was calculated as follows: in a pilot cohort, the CD8 count in the biopsy taken at diagnosis, and in the resected tissue sample was quantified. The mean value at diagnosis was 25 cells/high power filed (hpf), and this remained almost the same in the resected sample (26 cells/hpf). […] To detect a standardized difference of 0.5 with 80% power and one-sided test of statistical significance of 20%, 36 patients were randomized to AMG319 and 18 to placebo (54 in total). Randomization was at the level of the individual patient, using block randomization with randomly varying block sizes. During the course of the clinical trial the randomization list was held by the unblinded Trial Statistician and within the IWRS. Patients and care providers were blinded to the treatment allocation, and all immunological evaluations were completed by a pathologist and researchers who were blinded to the patient allocation to treatment arms. […] Patients were eligible if they were >18 years, with histologically proven HNSCC for whom surgery was the primary treatment option, with laboratory results within specified ranges. […]

circulating TREG cells = test: Phase II trial: circulating TREG cells; parameters: species or system human; details: in vivo
Description: Double blind, randomized clinical trial and sample collection. In order to explore the immunomodulatory effects of PI3Kδ inhibition in humans, the inventors conducted a multicenter, placebo-controlled phase II neoadjuvant trial with the PI3Kδi AMG319 in resectable HNSCC, www.clinicaltrialsregister.eu/ctr-search/trial/2014-004388-20/results). All patients have provided written informed consent for participation in the clinical trial. The inventors studied Human Papilloma Virus (HPV)-negative HNSCC, as this cancer type is more prevalent, and because patients with this cancer type have poorer outcomes when compared to HPV-positive HNSCC, likely due to overall lower tumor-infiltrating lymphocyte (TIL) infiltration^31-33. The clinical trial was sponsored by Cancer Research UK Center for Drug Development (CRUKD/15/004) and approved by the Southampton and South West Hampshire Research Ethics Board; the trial EudraCT number is 2014-004388-20. […] The sample size was calculated as follows: in a pilot cohort, the CD8 count in the biopsy taken at diagnosis, and in the resected tissue sample was quantified. […]

[3] = test system: heavily-pretreated patients with either CLL or non-Hodgkin lymphoma; details: cited from earlier work

## C[C@H](Nc1ncnc2[nH]cnc12)c1cc2ccc(F)cc2nc1-c1ccccn1 [AMG319]
[1]; 23 evaluable patients, AMG319 vs placebo
  difference in measured tumor volumes between the study arms: did not observe any significant differences
[1]; AMG319-treated, all also grade 3/4 irAEs
  patients with partial responses (PR): Two
[1]; AMG319-treated, also grade 3/4 irAEs
  patients with complete pathological response: one
[1]; human, in vivo
  diarrhea observed in the treatment group: 28%
  median time to onset of irAEs: 9 days
  skin rashes observed in the treatment group: 25%
  transaminitis: 14%
[1]; in vivo
  patients with grade 4 colitis, eventually required colectomy: One
[2]; post-treatment samples, bulk RNA-seq
  expression of IFNG, GZMB and PRF1 in sorted tumor-infiltrating CD8+ T cells: higher expression
[2]; post-treatment vs remaining samples
  differentially expressed genes, sorted CD8+ T cells: 455 genes
[2]; pre- vs post-treatment
  FOXP3 transcript levels in the tumor samples: significant reduction
[2]; pre- vs post-treatment tumor samples
  differentially-expressed genes, whole tumor RNA-seq: 93 DEGs
[2]; short interval between stopping treatment and assessment
  intratumoral TREG cells (FOXP3+ cells, immunohistochemistry): significantly reduced
Circulating TREG cells
  activated circulating TREG cells: significant increase
[3]; daily dosing with 400 mg
  nodal regression: > 50%
  target inhibition (BCR-induced pAKT in ex vivo IgD-stimulated CLL samples): near-complete target inhibition
[3]; doses of up to 400 mg explored
  maximally-tolerated dose: without reaching a maximally-tolerated dose
[3]; human plasma
  mean half-life in plasma: 3.8 to 6.6 h
[3]; in vivo
  occurrence of irAE at grade 3 or above (CTC): after days 40 and 60

From patent US20240277716A1, “Suppressive T Cell Populations and Methods of Cancer Immunotherapy” (La Jolla Institute for Immunology, priority 2021, published 2024)
